Assay results published in ChEMBL document CHEMBL5154651, “Substituent effect of benzyl moiety in nitroquinoxaline small molecules upon DNA binding: Cumulative destacking of DNA nucleobases leading to histone eviction” (Eur J Med Chem, 2022).
Activity calls are given as the source filed them. No cut-off for these calls is given here.

Tests used:
[1] = system: GC rich DNA; experiment: Disruption of native ds-GC12 DNA (unknown origin) base stacking interaction assessed as decrease in positive peak intensity at 283 nm at DNA base-pair to compound ratio of 1:4 by circular dichroism analysis; format: nucleic-acid assay
[2] = system: DNA; experiment: Induction of GC-rich pYUB12 plasmid DNA (unknown origin) unwinding assessed as DNA structural changes at DNA base-pair to compound ratio of 1:6 incubated for 16 hrs by mobility shift assay; format: nucleic-acid assay
[3] = system: GC rich DNA; experiment: Displacement of Ethidium bromide from native ds-GC12 short DNA (unknown origin) by Stern-Volmer quenching plot analysis; format: nucleic-acid assay
[4] = system: HCT-116; experiment: Cytotoxicity against human HCT-116 cells assessed as reduction in cell viability incubated for 24 hrs by MTT assay; format: functional, cell-based; conditions: HCT-116, 24 h
[5] = system: GC rich DNA; experiment: Disruption of native ds-GC12 DNA (unknown origin) base stacking interaction assessed as DNA structural changes at DNA base-pair to compound ratio of 1:4 by circular dichroism analysis; format: nucleic-acid assay
[6] = system: Calf thymus DNA; experiment: Binding affinity to calf thymus DNA assessed as change in free energy by isothermal titration calorimetry; format: nucleic-acid assay; conditions: Bos taurus
[7] = system: Calf thymus DNA; experiment: Binding affinity to calf thymus DNA assessed as change in entropy by isothermal titration calorimetry; format: nucleic-acid assay; conditions: Bos taurus
[8] = system: Calf thymus DNA; experiment: Binding affinity to calf thymus DNA assessed as change in enthalpy by isothermal titration calorimetry; format: nucleic-acid assay; conditions: Bos taurus
[9] = system: Calf thymus DNA; experiment: Binding affinity to calf thymus DNA by isothermal titration calorimetry; format: nucleic-acid assay; conditions: Bos taurus
[10] = system: GC rich DNA; experiment: Disruption of native ds-GC12 DNA (unknown origin) base stacking interaction assessed as appearance of ICD at 320 to 330 nm by circular dichroism analysis; format: nucleic-acid assay
[11] = system: GC rich DNA; experiment: Disruption of native ds-GC12 DNA (unknown origin) base stacking interaction assessed as decrease in positive peak intensity at 283 nm by circular dichroism analysis; format: nucleic-acid assay
[12] = system: DNA; experiment: Induction of GC-rich pYUB12 plasmid DNA (unknown origin) unwinding assessed as DNA structural changes at DNA base-pair to compound ratio of 1:4 incubated for 16 hrs by mobility shift assay; format: nucleic-acid assay

Row | Activity [1] | Activity [2] | KSV [3] | Compound | other results
1 | Active | Active | < 1 10^4/M | CN(C)CCCNc1nc2cc([N+](=O)[O-])ccc2nc1NCc1ccccc1 | 
2 |  |  | 0.19 10^4/M | O=[N+]([O-])c1ccc2nc(NCc3ccccc3)c(N3CCCCC3)nc2c1 | IC50 [4]: > 50 µM
3 | Active | Active | < 1 10^4/M | CN(C)CCCNc1nc2cc([N+](=O)[O-])ccc2nc1NCc1ccc(N)cc1 | 
4 |  |  | < 0.3 10^4/M | CN(C)CCCNc1nc2cc([N+](=O)[O-])ccc2nc1NCc1cccs1 | Activity [5]: Active
5 | Active | Active | < 1 10^4/M | CN(C)CCCNc1nc2cc([N+](=O)[O-])ccc2nc1NCc1ccc(O)cc1 | deltaG [6]: -6.38 kcal/mol; TdeltaS [7]: 4.88 kcal/mol; deltaH [8]: -1.5 kcal/mol; Ka [9]: 3.96 10^4/M
6 |  |  | 2.4 10^4/M | CN(C)CCCNc1nc2cc([N+](=O)[O-])ccc2nc1NCc1ccc(Cl)cc1 | Activity [10]: Active; Activity [11]: Active; Activity [12]: Active
7 | Active | Active | < 1 10^4/M | CN(C)CCCNc1nc2cc([N+](=O)[O-])ccc2nc1NCc1ccc([N+](=O)[O-])cc1 | 
8 |  |  | < 0.3 10^4/M | CN(C)CCCNc1nc2cc([N+](=O)[O-])ccc2nc1NCc1ccco1 | 
